According to US20220088016A1, “CANCER TREATMENT USING MULTI-TARGETED KINASE INHIBITOR IN COMBINATION OF PROTEIN KINASE BIOMARKERS” (ZHEJIANG CROWNMAB BIOTECH CO. LTD., priority 2019, published 2022):
Values joined by “and” are separate entries in the source; they are usually repeats but may differ in a detail not shown here. Equal entries are not always repeated.

Experiments:
[1] = test system: CD8 (T cell surface marker); test: CD8 IHC test in MC-38 tumor; format: in vivo, mouse; conditions: MC-38 tumors; vs vehicle group
Method: MC38 tumor tissues were collected at the end of the in vivo efficacy trial. The tumor tissue was then embedded in paraffin. The expression of CD3/CD4/CD8/F4-80 were tested by immunohistochemistry stain.

CAMKK1 = CAMKK1 (Homo sapiens, UniProt Q8N5S9); test: Kinase profiling; format: binding; conditions: read-out: % Ctrl @ 1000 nM
YANK2 = YANK2 (Homo sapiens, UniProt Q9NY57); test: Kinase profiling; format: binding; conditions: read-out: % Ctrl @ 1000 nM
PIKFYVE = PIKFYVE (Homo sapiens, UniProt Q9Y2I7); test: Kinase profiling; format: binding; conditions: read-out: % Ctrl @ 1000 nM
PIKFYVE, sequence (Q9Y2I7 whole entry): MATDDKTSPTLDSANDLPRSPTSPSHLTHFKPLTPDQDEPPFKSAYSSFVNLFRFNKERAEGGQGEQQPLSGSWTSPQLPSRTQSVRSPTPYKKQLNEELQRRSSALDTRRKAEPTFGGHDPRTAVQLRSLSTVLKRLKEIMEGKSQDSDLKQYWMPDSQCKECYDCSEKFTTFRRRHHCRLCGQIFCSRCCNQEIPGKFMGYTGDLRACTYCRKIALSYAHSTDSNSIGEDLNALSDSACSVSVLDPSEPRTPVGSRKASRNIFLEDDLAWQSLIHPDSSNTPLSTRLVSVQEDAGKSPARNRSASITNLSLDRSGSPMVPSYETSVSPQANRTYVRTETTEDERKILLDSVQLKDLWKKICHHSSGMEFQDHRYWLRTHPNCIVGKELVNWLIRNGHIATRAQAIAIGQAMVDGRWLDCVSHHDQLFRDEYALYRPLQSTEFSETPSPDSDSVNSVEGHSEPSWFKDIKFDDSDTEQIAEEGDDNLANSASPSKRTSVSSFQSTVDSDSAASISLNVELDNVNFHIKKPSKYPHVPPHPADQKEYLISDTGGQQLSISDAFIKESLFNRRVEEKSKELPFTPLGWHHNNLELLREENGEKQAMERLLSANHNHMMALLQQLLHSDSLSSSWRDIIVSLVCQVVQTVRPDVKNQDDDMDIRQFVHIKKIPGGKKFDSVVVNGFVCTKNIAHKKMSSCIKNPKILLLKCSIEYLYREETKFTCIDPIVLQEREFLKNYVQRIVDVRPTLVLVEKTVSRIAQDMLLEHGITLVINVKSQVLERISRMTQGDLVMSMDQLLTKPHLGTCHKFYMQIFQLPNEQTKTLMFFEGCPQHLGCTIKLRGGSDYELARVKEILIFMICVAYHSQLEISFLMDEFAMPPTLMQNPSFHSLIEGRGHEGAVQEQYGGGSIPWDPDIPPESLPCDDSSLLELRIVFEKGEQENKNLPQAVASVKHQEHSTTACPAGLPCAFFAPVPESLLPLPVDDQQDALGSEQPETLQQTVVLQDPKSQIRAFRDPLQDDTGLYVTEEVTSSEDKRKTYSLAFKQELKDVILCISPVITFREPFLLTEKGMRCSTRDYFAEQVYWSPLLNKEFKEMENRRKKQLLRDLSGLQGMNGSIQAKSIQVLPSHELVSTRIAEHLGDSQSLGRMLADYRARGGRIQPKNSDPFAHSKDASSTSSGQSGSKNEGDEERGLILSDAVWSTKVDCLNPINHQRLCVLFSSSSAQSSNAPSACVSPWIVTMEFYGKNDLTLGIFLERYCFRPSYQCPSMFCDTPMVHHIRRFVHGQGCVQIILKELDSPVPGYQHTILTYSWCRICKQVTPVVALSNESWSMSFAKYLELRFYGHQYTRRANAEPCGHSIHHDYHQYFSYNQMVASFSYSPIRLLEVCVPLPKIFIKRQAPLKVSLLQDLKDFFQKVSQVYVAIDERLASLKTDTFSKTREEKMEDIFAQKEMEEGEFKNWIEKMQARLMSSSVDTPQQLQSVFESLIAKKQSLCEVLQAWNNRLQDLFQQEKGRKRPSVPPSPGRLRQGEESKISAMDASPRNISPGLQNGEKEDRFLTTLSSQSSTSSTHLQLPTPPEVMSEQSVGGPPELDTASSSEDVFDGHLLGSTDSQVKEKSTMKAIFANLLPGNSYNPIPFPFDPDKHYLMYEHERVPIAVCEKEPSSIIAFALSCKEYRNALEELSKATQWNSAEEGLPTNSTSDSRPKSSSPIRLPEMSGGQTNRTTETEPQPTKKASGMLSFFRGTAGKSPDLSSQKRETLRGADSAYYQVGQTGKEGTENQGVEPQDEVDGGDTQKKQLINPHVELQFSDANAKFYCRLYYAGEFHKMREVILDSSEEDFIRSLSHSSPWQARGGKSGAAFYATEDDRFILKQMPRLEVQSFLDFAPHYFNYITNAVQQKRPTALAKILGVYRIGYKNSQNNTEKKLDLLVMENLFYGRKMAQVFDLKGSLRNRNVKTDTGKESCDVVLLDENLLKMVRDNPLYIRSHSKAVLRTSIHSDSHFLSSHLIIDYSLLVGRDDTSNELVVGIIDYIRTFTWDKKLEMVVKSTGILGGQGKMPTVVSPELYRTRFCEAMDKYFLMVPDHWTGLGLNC

FYN = FYN (Homo sapiens, UniProt P06241); test: Kinase profiling; format: binding; conditions: read-out: % Ctrl @ 1000 nM
FYN, sequence (P06241 whole entry): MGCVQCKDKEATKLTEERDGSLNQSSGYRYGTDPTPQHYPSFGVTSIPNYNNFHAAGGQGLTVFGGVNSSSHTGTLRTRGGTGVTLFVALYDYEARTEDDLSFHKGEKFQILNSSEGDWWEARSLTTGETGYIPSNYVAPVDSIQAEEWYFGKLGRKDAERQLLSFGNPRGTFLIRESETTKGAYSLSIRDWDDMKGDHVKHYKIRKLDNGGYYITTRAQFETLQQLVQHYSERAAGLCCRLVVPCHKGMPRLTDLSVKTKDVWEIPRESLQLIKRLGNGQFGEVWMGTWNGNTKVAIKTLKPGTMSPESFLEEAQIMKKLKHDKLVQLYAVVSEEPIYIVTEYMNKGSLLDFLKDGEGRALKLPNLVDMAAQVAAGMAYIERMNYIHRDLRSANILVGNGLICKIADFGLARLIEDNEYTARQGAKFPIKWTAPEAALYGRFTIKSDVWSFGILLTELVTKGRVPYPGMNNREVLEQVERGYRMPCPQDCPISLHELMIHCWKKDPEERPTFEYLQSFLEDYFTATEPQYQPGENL

MAP4K4 = MAP4K4 (Homo sapiens, UniProt O95819); test: Kinase profiling; format: binding; conditions: read-out: % Ctrl @ 1000 nM
MC-38 tumor = test: Subcutaneous MC-38 murine colon cancer model; format: in vivo, mouse; conditions: 20 mg/kg first 11 days, then 10 mg/kg
Method: The MC-38 tumor cells were maintained in vitro with RPMI1640 medium supplemented with 10% fetal bovine serum at 37° C. in an atmosphere of 5% CO2 in air. Each mouse was inoculated subcutaneously after shaving at the right flank region with MC-38 tumor cells (1×10e6) in 0.1 mL of PBS for tumor development. The randomization started when the mean tumor size reached approximately 100 mm^3. Group 1 mice were treated vehicle and group 2 mice were treated 20 mg/kg CBT-102 at first 11 days and reduced to 10 mg/kg afterwards.

TRKC = TRKC (Homo sapiens, UniProt Q16288); test: Kinase profiling; format: binding; conditions: read-out: % Ctrl @ 1000 nM
TRKC, sequence (Q16288 32-839): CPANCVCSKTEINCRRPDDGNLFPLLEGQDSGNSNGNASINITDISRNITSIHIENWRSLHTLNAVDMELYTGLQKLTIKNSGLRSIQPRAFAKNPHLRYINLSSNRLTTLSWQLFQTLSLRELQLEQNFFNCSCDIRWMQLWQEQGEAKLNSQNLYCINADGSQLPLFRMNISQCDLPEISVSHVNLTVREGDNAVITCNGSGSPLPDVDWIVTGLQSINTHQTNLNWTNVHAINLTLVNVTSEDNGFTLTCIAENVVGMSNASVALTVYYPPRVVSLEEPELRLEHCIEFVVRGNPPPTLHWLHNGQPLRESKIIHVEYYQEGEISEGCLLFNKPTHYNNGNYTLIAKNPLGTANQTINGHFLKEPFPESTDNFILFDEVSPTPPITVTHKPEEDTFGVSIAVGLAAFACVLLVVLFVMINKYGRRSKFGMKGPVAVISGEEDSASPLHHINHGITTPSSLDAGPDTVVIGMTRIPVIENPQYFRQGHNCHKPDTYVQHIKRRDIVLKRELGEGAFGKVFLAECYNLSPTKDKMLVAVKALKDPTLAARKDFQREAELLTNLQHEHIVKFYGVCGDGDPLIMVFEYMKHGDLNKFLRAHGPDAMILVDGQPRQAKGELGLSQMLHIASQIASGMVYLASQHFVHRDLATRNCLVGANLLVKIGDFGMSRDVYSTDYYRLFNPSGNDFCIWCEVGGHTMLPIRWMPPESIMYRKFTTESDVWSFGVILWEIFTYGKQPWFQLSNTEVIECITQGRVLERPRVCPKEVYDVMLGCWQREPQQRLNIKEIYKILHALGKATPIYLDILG

CDK9 = CDK9 (Homo sapiens, UniProt P50750); test: Kinase profiling; format: binding; conditions: read-out: % Ctrl @ 1000 nM
ALK (L1196M) = ALK (L1196M) (Homo sapiens, UniProt Q9UM73, L1196M); test: Kinase profiling; format: binding; conditions: read-out: % Ctrl @ 1000 nM
PIK3CA (E545K) = PIK3CA (E545K) (Homo sapiens, UniProt P42336, E545K); test: Kinase profiling; format: binding; conditions: read-out: % Ctrl @ 1000 nM
EGFR (T790M) = EGFR (T790M) (Homo sapiens, UniProt P00533, T790M); test: Kinase profiling; format: binding; conditions: read-out: % Ctrl @ 1000 nM
MET = biological target: T1, MET (Homo sapiens, UniProt P08581); test: Kinase profiling; format: binding; conditions: read-out: % Ctrl @ 1000 nM
T1 construct: T7 phage fusion (stated for most kinases of the panel only); made in house; host or cells: T7 phage in E. coli (BL21-derived) or HEK-293 cells

PIK3CA (M1043I) = PIK3CA (M1043I) (Homo sapiens, UniProt P42336, M1043I); test: Kinase profiling; format: binding; conditions: read-out: % Ctrl @ 1000 nM
MUSK = biological target: T2, MUSK (Homo sapiens, UniProt O15146); test: Kinase profiling; format: binding; conditions: read-out: % Ctrl @ 1000 nM
T2 construct: T7 phage fusion (said for most assays); made in house

EGFR (L858R) = EGFR (L858R) (Homo sapiens, UniProt P00533, L858R); test: Kinase profiling; format: binding; conditions: read-out: % Ctrl @ 1000 nM
MST4 = biological target: T3, MST4 (Homo sapiens, UniProt Q9P289); test: Kinase profiling; format: binding; conditions: read-out: % Ctrl @ 1000 nM
T3 construct: T7 phage fusion (said for most assays); made in house

TESK1 = TESK1 (Homo sapiens, UniProt Q15569); test: Kinase profiling; format: binding; conditions: read-out: % Ctrl @ 1000 nM
SRMS = SRMS (Homo sapiens, UniProt Q9H3Y6); test: Kinase profiling; format: binding; conditions: read-out: % Ctrl @ 1000 nM
IKK-beta = IKK-beta (Homo sapiens, UniProt O14920); test: Kinase profiling; format: binding; conditions: read-out: % Ctrl @ 1000 nM
STK35 = STK35 (Homo sapiens, UniProt Q8TDR2); test: Kinase profiling; format: binding; conditions: read-out: % Ctrl @ 1000 nM
FLT3 (ITD) = test: Kinase profiling; format: binding
PDGFRB = PDGFRB (Homo sapiens, UniProt P09619); test: Kinase profiling; format: binding; conditions: read-out: % Ctrl @ 1000 nM
PDGFRB, sequence (P09619 33-1106): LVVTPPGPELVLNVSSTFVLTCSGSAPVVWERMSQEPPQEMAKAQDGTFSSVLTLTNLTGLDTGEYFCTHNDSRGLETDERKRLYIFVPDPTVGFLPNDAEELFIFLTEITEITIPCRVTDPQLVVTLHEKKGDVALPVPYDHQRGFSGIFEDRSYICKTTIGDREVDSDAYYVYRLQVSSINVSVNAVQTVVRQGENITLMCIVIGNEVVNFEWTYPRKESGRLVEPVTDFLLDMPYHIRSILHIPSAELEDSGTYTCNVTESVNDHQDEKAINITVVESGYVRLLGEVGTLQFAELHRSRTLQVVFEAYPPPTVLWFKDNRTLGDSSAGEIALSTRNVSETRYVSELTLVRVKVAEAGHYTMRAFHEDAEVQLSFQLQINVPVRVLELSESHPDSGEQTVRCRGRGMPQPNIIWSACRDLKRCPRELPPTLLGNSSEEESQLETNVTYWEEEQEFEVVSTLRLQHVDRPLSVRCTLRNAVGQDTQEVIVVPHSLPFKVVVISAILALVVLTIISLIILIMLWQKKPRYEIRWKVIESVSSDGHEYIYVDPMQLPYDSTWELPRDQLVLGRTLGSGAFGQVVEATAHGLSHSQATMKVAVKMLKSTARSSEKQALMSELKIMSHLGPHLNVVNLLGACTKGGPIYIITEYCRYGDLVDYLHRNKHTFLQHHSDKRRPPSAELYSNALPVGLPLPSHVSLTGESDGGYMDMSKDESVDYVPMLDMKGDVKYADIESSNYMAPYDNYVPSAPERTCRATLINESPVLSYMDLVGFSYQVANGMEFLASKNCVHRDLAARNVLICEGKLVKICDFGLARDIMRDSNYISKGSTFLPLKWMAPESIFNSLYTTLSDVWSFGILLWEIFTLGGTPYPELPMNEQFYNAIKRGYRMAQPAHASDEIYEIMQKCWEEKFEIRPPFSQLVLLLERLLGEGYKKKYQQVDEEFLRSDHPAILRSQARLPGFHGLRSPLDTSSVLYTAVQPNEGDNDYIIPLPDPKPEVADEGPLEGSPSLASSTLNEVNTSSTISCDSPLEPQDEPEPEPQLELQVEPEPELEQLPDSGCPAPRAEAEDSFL

NEK4 = biological target: T4, NEK4 (Homo sapiens, UniProt P51957); test: Kinase profiling; format: binding; conditions: read-out: % Ctrl @ 1000 nM
T4 construct: T7 phage fusion (said for most assays); made in house

ERK1 = ERK1 (Homo sapiens, UniProt P27361); test: Kinase profiling; format: binding; conditions: read-out: % Ctrl @ 1000 nM
ERK1, sequence (P27361 whole entry): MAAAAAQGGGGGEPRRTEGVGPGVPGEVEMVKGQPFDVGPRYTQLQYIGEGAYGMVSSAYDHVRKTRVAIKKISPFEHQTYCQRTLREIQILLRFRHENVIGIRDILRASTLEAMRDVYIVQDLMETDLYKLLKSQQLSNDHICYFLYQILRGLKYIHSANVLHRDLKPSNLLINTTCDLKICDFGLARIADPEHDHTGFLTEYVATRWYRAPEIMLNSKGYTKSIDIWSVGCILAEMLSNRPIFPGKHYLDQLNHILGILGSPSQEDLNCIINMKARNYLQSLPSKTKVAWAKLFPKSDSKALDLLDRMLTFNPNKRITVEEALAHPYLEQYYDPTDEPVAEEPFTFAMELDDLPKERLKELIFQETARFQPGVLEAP

EPHB6 = EPHB6 (Homo sapiens, UniProt O15197); test: Kinase profiling; format: binding; conditions: read-out: % Ctrl @ 1000 nM
TAOK1 = TAOK1 (Homo sapiens, UniProt Q7L7X3); test: Kinase profiling; format: binding; conditions: read-out: % Ctrl @ 1000 nM
FGFR1 = FGFR1 (Homo sapiens, UniProt P11362); test: Kinase profiling; format: binding; conditions: read-out: % Ctrl @ 1000 nM
ERBB2 = ERBB2 (Homo sapiens, UniProt P04626); test: Kinase profiling; format: binding; conditions: read-out: % Ctrl @ 1000 nM
KIT (V559D, T670I) = KIT (V559D, T670I) (Homo sapiens, UniProt P10721, T670I/V559D); test: Kinase profiling; format: binding; conditions: read-out: % Ctrl @ 1000 nM
S6K1 = S6K1 (Homo sapiens, UniProt P23443); test: Kinase profiling; format: binding; conditions: read-out: % Ctrl @ 1000 nM
ERBB3 = ERBB3 (Homo sapiens, UniProt P21860); test: Kinase profiling; format: binding; conditions: read-out: % Ctrl @ 1000 nM
EPHA5 = EPHA5 (Homo sapiens, UniProt P54756); test: Kinase profiling; format: binding; conditions: read-out: % Ctrl @ 1000 nM
GRK2 = GRK2 (Homo sapiens, UniProt P25098); test: Kinase profiling; format: binding; conditions: read-out: % Ctrl @ 1000 nM

## Cc1cc(Oc2cc(NC(=O)C3CC3)ncn2)ccc1NC(=O)Nc1ccc(Cl)c(C(F)(F)F)c1 [CBT-102]
[1]
  effect on T cell surface marker CD8 (IHC): no significant effect
CAMKK1
  remaining activity at 1 µM: 88%
YANK2
  remaining activity at 1 µM: 100%
PIKFYVE
  remaining activity at 1 µM: 91%
FYN
  remaining activity at 1 µM: 76%
MAP4K4
  remaining activity at 1 µM: 3.4%
MC-38 tumor; Day34 (PG-D21)
  Tumor Size on day34: 454.63 mm^3 and 454.63 ± 60.72 mm^3
MC-38 tumor; day34
  T/C: 20.09%
MC-38 tumor; day34, vs vehicle
  TGI: 79.91%
TRKC
  remaining activity at 1 µM: 37%
CDK9
  remaining activity at 1 µM: 46%
ALK (L1196M)
  remaining activity at 1 µM: 94%
PIK3CA (E545K)
  remaining activity at 1 µM: 94%
EGFR (T790M)
  remaining activity at 1 µM: 94%
MET
  remaining activity at 1 µM: 80%
PIK3CA (M1043I)
  remaining activity at 1 µM: 100%
MUSK
  remaining activity at 1 µM: 47%
EGFR (L858R)
  remaining activity at 1 µM: 87%
MST4
  remaining activity at 1 µM: 100%
TESK1
  remaining activity at 1 µM: 100%
SRMS
  remaining activity at 1 µM: 99%
IKK-beta
  remaining activity at 1 µM: 92%
STK35
  remaining activity at 1 µM: 93%
FLT3 (ITD)
  % Ctrl @ 1000 nM: 18%
PDGFRB
  remaining activity at 1 µM: 0%
NEK4
  remaining activity at 1 µM: 93%
ERK1
  remaining activity at 1 µM: 91%
EPHB6
  remaining activity at 1 µM: 14%
TAOK1
  remaining activity at 1 µM: 49%
FGFR1
  remaining activity at 1 µM: 61%
ERBB2
  remaining activity at 1 µM: 93%
KIT (V559D, T670I)
  remaining activity at 1 µM: 0.3%
S6K1
  remaining activity at 1 µM: 99%
ERBB3
  remaining activity at 1 µM: 100%
EPHA5
  remaining activity at 1 µM: 52%
GRK2
  remaining activity at 1 µM: 100%
